Reference: US20130310256A1, “HERBICIDAL COMPOSITIONS COMPRISING 4-AMINO-3-CHLORO-5-FLUORO-6-(4-CHLORO-2-FLUORO-3-METHOXYPHENYL) PYRIDINE-2-CARBOXYLIC ACID OR A DERIVATIVE THEREOF AND VLCFA AND LIPID SYNTHESIS INHIBITING HERBICIDES” (DOW AGROSCIENCES LLC, priority 2008, published 2013)
Several values for one entry are separate records, joined by “and”; a condition that tells them apart may be missing. Identical values can stand only once.

Tests used:
ECHCG [1] = assay: Example II: in-water applied weed control, transplanted paddy rice, greenhouse; assay type: in vivo, Echinochloa crus-galli (L.) Beauv. (barnyardgrass)
Procedure: (§1) Weed seeds or nutlets of the desired test plant species were planted in puddled soil (mud) prepared by mixing a shredded, non-sterilized mineral soil (50.5 percent silt, 25.5 percent clay, and 24 percent sand, with a pH of about 7.6 and an organic matter content of about 2.9 percent) and water at a 1:1 volumetric ratio. The prepared mud was dispensed in 365 mL aliquots into 16-ounce (oz.) non-perforated plastic pots with a surface area of 86.59 square centimeters (cm^2) leaving a headspace of 3 centimeters (cm) in each pot. Mud was allowed to dry overnight prior to planting or transplanting. Rice seeds were planted in Sun Gro MetroMix® 306 planting mixture, which typically has a pH of 6.0 to 6.8 and an organic matter content of about 30 percent, in plastic plug trays. Seedlings at the second or third leaf stage of growth were transplanted into 840 mL of mud contained in 32-oz. non-perforated plastic pots with a surface area of 86.59 cm^2 4 days prior to herbicide application. The paddy was created by filling the headspace of the pots with 2.5 to 3 cm of water. When required to ensure good germination and healthy plants, a fungicide treatment and/or other chemical or physical treatment was applied. The plants were grown for 4-22 days in a greenhouse with an approximate 14 hr photoperiod which was maintained at about 29′C during the day and 26° C. during the night. Nutrients were added as Osmocote® (19:6:12, N:P:K+ minor nutrients) at 2 g per 16-oz. pot and 4 g per 32-oz. pot. Water was added on a regular basis to maintain the paddy flood, and supplemental lighting was provided with overhead metal halide 1000-Watt lamps as necessary. The plants were employed for testing when they reached the first through fourth true leaf stage.
(§2) Treatments consisted of the acid or esters of 4-amino-3-chloro-5-fluoro-6-(4-chloro-2-fluoro-3-methoxy-phenyl)pyridine-2-carboxylic acid (compound A) each formulated as an SC (suspension concentrate) and various herbicidal components alone and in combination. Forms of compound A were applied on an acid equivalent basis.
(§3) The herbicidal components were applied on an active ingredient basis and included very long chain fatty acid (VLCFA) synthesis-inhibiting and fatty acid/lipid synthesis-inhibiting herbicides acetochlor (technical grade material), acetochlor+dichlormid formulateded as Topnotch®, pretilachlor (technical grade material), butachlor formulated as Butachlor EC, fentrazamide formulated as Fentrazamide EC, thiobencarb formulated as Bolero® 8EC, cafenstrole formulated as Himeadow® WP or Lapost® Flowable, benfuresate formulated as Full Shot®, anilofos (technical grade material), mefenacet (technical grade material), molinate (technical grade material), and thenylchlor (technical grade material).
(§4) Treatment requirements for each compound or herbicidal component were calculated based upon the rates being tested, the concentration of active ingredient or acid equivalent in the formulation, an application volume of 2 mL per component per pot, and an application area of 86.59 cm^2 per pot.
(§5) For formulated compounds, a measured amount was placed in an individual 100 or 200 mL glass vial and was dissolved in a volume of 1.25% (v/v) Agri-Dex® crop oil concentrate to obtain application solutions.
(§6) For technical grade compounds, a weighed amount was placed in an individual 100 to 200 mL glass vial and was dissolved in a volume of acetone to obtain concentrated stock solutions. […] The concentrated stock solutions obtained were diluted with an equivalent volume of an aqueous mixture containing 2.5% (v/v) crop oil concentrate so that the final application solutions contained 1.25% (v/v) crop oil concentrate.
(§7) Applications were made by injecting with a pipetter appropriate amounts of the application solutions, individually and sequentially, into the aqueous layer of the paddy. Control plants were treated in the same manner with the solvent blank. […]

ECHCG [2] = assay: Example V: field trial, in-water application to transplanted rice, Niigata, Japan; assay type: in vivo, Echinochloa crus-galli; conditions: early post-emergence; for Visual Weed Control ECHCG (11 DAA) Obs / Visual Weed Control ECHCG Obs: 11 DAA
Procedure: Post and pre-emergence field trials were conducted in Niigata, Japan. Trial sites were located in commercially grown fields of transplanted rice (Oryza sativa, variety: Koshihikari) using standard herbicide small plot research methodology. The trial plot size was 2 meters (m)×2 m with 3 replications. The nursery plants were grown in the greenhouse using practical methods and transplanted into the field at the 2.5-leaf stage on May 7, 2012. The row and in-row spaces were 30 cm and 17 cm, respectively. The crop was grown using normal cultural practices for fertilization, water management and maintenance to ensure good growth of the crop and the weeds.
Treatments consisted of the benzyl ester of 4-amino-3-chloro-5-fluoro-6-(4-chloro-2-fluoro-3-methoxyphenyl)pyridine-2-carboxylic acid (Compound A) formulated as an SC (suspension concentrate) and various herbicidal components alone and in combination. Compound A benzyl ester was applied on an active ingredient basis. The herbicidal components were applied on an active ingredient basis and included very long chain fatty acid (VLCFA) synthesis-inhibiting and fatty acid/lipid biosynthesis herbicides pretilachlor formulated as a commercially available granular formulation and benfuresate formulated as a commercially available flowable formulation.
Compound A benzyl ester SC was once diluted in 100 mL water in the 200 mL bottle/plot to achieve the desired rates and applied by water injection. Water injection applications were made by hand as evenly as possible. Pretilachlor was applied by hand, and benfuresate was applied using a pipette to achieve the desired rates. Each compound in mixture treatments was applied separately and successively. Water depth was 3 cm at application. […] Visual weed control was scored on a scale of 0 to 100 percent where 0 corresponds to no injury and 100 corresponds to complete kill.
All treatment results, both for the single product and mixtures, are an average of 3 replicates. The trial sites had naturally occurring populations of weeds. The weed spectrum included, but was not limited to, common barnyardgrass (Echinochloa crus-galli, ECHCG), monochoria (Monochoria vaginalis, MOOVA), Japanese bulrush (Scirpus juncoides, SCPJU), kuroguwai (Eleocharis kuroguwai, ELOKU), common falsepimpernel (Lindernia pyxidaria, LIDPY), Souchet tardif (Cyperus serotinus, CYPSE), small-flower flatsedge (Cyperus difformis, CYPDI), American waterwort (Elatine triandra, ELTTR), and swamp smartweed (Polygonum hydropiperoides, POLHP).
Colby's equation was used to determine the herbicidal effects expected from the mixtures (Colby, S. R. 1967. Calculation of the synergistic and antagonistic response of herbicide combinations. Weeds 15:20-22.).
Some of the compounds tested, application rates employed, plant species tested, and results for submerged (weeds have not yet emerged from the flood water) weed control are given in Table 54. Some of the compounds tested, application rates employed, plant species tested, and results for early postemergence weed control are given in Tables 55-56.

LEFCH = assay: Example II: in-water applied weed control, transplanted paddy rice, greenhouse; assay type: in vivo, Leptochloa chinensis (L.) Nees (Chinese sprangletop)
Procedure: as §1, §2, §3, §4, §5, §6, §7

CYPRO = assay: as above; assay type: in vivo, Cyperus rotundus L. (purple nutsedge)
Procedure, shortened: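 Transplanted rice and weeds at the first to fourth true leaf stage in flooded mud pots (pH ~7.6 soil), greenhouse ~29/26 °C, 14 h photoperiod. Compound A (acid equivalent) and VLCFA/lipid-synthesis herbicides (active ingredient) injected into the paddy water in 1.25% crop oil concentrate. Injury scored visually at ~3 weeks versus untreated, 0–100%.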

[3] = 52.5 gai/ha (Himeadow WP), 21 DAA
[4] = 105 gai/ha (Himeadow WP), 21 DAA

## CCS(=O)(=O)Oc1ccc2c(c1)C(C)(C)CO2 [Benfuresate, 2,3-dihydro-3,3-dimethyl-5-benzofuranyl ethanesulfonate]
ECHCG [1]; 75 gai/ha (Full Slot), 22 DAA
  Visual Weed Control ECHCG Obs: 0%
ECHCG [1]; 150 gai/ha (Full Slot), 22 DAA
  Visual Weed Control ECHCG Obs: 0%
ECHCG [2]; 600 gai/ha
  Visual Weed Control ECHCG (11 DAA) Obs: 6.7%
  Visual Weed Control ECHCG (16 DAA) Obs: 20.0%
LEFCH; 75 gai/ha (Full Slot), 22 DAA
  Visual Weed Control LEFCH Obs: 0%
LEFCH; 150 gai/ha (Full Slot), 22 DAA
  Visual Weed Control LEFCH Obs: 0%

## CCN(CC)C(=O)n1cnc(S(=O)(=O)c2c(C)cc(C)cc2C)n1 [Cafenstrole, N,N-diethyl-3-[(2,4,6-trimethylphenyl)sulfonyl]-1H-1,2,4-triazole-1-carboxamide]
CYPRO; [3]
  Visual Weed Control CYPRO Obs: 0%
CYPRO; 52.5 gai/ha (Lapost Flowable), 21 DAA
  Visual Weed Control CYPRO Obs: 0%
CYPRO; [4]
  Visual Weed Control CYPRO Obs: 0%
CYPRO; 105 gai/ha (Lapost Flowable), 21 DAA
  Visual Weed Control CYPRO Obs: 0%
ECHCG [1]; [3]
  Visual Weed Control ECHCG Obs: 20%
ECHCG [1]; [4]
  Visual Weed Control ECHCG Obs: 25%
LEFCH; 210 gai/ha (Lapost Flowable), 21 DAA
  Visual Weed Control LEFCH Obs: 38%

## COc1c(Cl)ccc(-c2nc(C(=O)O)c(Cl)c(N)c2F)c1F [Compound A Acid, 4-amino-3-chloro-6-(4-chloro-2-fluoro-3-methoxyphenyl)-5-fluoropyridine-2-carboxylic acid]
CYPRO; 8.75 gae/ha
  Visual Weed Control (%) - 20 DAA CYPRO Obs: 0%
  Visual Weed Control (%) - 21 DAA CYPRO Obs: 0%
CYPRO; 8.75 gae/ha, 21 DAA
  Visual Weed Control CYPRO Obs: 0%
CYPRO; 17.5 gae/ha, 21 DAA
  Visual Weed Control CYPRO Obs: 20%
CYPRO; 35 gae/ha
  Visual Weed Control (%) - 20 DAA CYPRO Obs: 80% and 90%
ECHCG [1]; 8.75 gae/ha
  Visual Weed Control (%) - 21 DAA ECHCG Obs: 0%
  Visual Weed Control (%) - 22 DAA ECHCG Obs: 0%
ECHCG [1]; 8.75 gae/ha, 21 DAA
  Visual Weed Control ECHCG Obs: 0%
ECHCG [1]; 17.5 gae/ha
  Visual Weed Control (%) - 21 DAA ECHCG Obs: 0%
  Visual Weed Control (%) - 22 DAA ECHCG Obs: 15%
ECHCG [1]; 17.5 gae/ha, 21 DAA
  Visual Weed Control ECHCG Obs: 0%
ECHCG [1]; 35 gae/ha
  Visual Weed Control (%) - 21 DAA ECHCG Obs: 20%
  Visual Weed Control (%) - 22 DAA ECHCG Obs: 15%
ECHCG [1]; 35 gae/ha, 21 DAA
  Visual Weed Control ECHCG Obs: 20%
ECHCG [1]; 42.4 gae/ha, 22 DAA
  Visual Weed Control ECHCG Obs: 30%
LEFCH; 10.6 gae/ha, 22 DAA
  Visual Weed Control LEFCH Obs: 20%
LEFCH; 21.2 gae/ha, 22 DAA
  Visual Weed Control LEFCH Obs: 40%
LEFCH; 35 gae/ha, 21 DAA
  Visual Weed Control LEFCH Obs: 5%
LEFCH; 42.4 gae/ha, 22 DAA
  Visual Weed Control LEFCH Obs: 60%
LEFCH; 70 gae/ha, 21 DAA
  Visual Weed Control LEFCH Obs: 23%

## COc1c(Cl)ccc(-c2nc(C(=O)OCc3ccccc3)c(Cl)c(N)c2F)c1F [Compound A Benzyl Ester, benzyl ester of 4-amino-3-chloro-5-fluoro-6-(4-chloro-2-fluoro-3-methoxy-phenyl)pyridine-2-carboxylic acid]
CYPRO; 4.38 gae/ha
  Visual Weed Control (%) - 21 DAA CYPRO Obs: 0%
CYPRO; 4.38 gae/ha, 20 DAA
  Visual Weed Control CYPRO Obs: 0%
CYPRO; 4.38 gae/ha, 21 DAA
  Visual Weed Control CYPRO Obs: 0%
CYPRO; 8 gae/ha, 19 DAA
  Visual Weed Control CYPRO Obs: 50%
CYPRO; 8.75 gae/ha
  Visual Weed Control (%) - 20 DAA CYPRO Obs: 20% and 30%
  Visual Weed Control (%) - 21 DAA CYPRO Obs: 30%
CYPRO; 8.75 gae/ha, 20 DAA
  Visual Weed Control CYPRO Obs: 20%
CYPRO; 8.75 gae/ha, 21 DAA
  Visual Weed Control CYPRO Obs: 30%
CYPRO; 17.5 gae/ha
  Visual Weed Control (%) - 20 DAA CYPRO Obs: 95%
CYPRO; 17.5 gae/ha, 20 DAA
  Visual Weed Control CYPRO Obs: 95%
ECHCG [1]; 4.38 gae/ha
  Visual Weed Control (%) - 21 DAA ECHCG Obs: 15%
  Visual Weed Control (%) - 22 DAA ECHCG Obs: 10%
ECHCG [1]; 4.38 gae/ha, 21 DAA
  Visual Weed Control ECHCG Obs: 15%
ECHCG [1]; 8 gae/ha, 19 DAA
  Visual Weed Control ECHCG Obs: 30%
ECHCG [1]; 8.75 gae/ha
  Visual Weed Control (%) - 21 DAA ECHCG Obs: 20%
  Visual Weed Control (%) - 22 DAA ECHCG Obs: 25%
ECHCG [1]; 8.75 gae/ha, 21 DAA
  Visual Weed Control ECHCG Obs: 20%
ECHCG [1]; 16 gae/ha, 19 DAA
  Visual Weed Control ECHCG Obs: 20%
ECHCG [1]; 17.5 gae/ha
  Visual Weed Control (%) - 21 DAA ECHCG Obs: 75%
  Visual Weed Control (%) - 22 DAA ECHCG Obs: 60%
ECHCG [1]; 17.5 gae/ha, 21 DAA
  Visual Weed Control ECHCG Obs: 75%
ECHCG [1]; 32 gae/ha, 19 DAA
  Visual Weed Control ECHCG Obs: 40%
ECHCG [2]; 100 gai/ha
  Visual Weed Control ECHCG (11 DAA) Obs: 3.3%
  Visual Weed Control ECHCG Obs: 6.7%
  Visual Weed Control ECHCG (16 DAA) Obs: 20.0%
LEFCH; 4.38 gae/ha, 22 DAA
  Visual Weed Control LEFCH Obs: 20%
LEFCH; 8 gae/ha, 19 DAA
  Visual Weed Control LEFCH Obs: 0%
LEFCH; 16 gae/ha, 19 DAA
  Visual Weed Control LEFCH Obs: 0%
LEFCH; 32 gae/ha, 19 DAA
  Visual Weed Control LEFCH Obs: 15%
LEFCH; 35 gae/ha, 21 DAA
  Visual Weed Control LEFCH Obs: 50%
LEFCH; 70 gae/ha, 21 DAA
  Visual Weed Control LEFCH Obs: 50%

## CCCOCCN(C(=O)CCl)c1c(CC)cccc1CC [Pretilachlor, 2-chloro-N-(2,6-diethylphenyl)-N-(2-propoxyethyl)acetamide]
CYPRO; 75 gai/ha
  Visual Weed Control (%) - 20 DAA CYPRO Obs: 0%
CYPRO; 150 gai/ha
  Visual Weed Control (%) - 20 DAA CYPRO Obs: 0%
ECHCG [2]; 400 gai/ha
  Visual Weed Control ECHCG Obs: 46.7%
